The results in this text go back to patent US10004701B2, “Methods and compositions for treating infection” (UNIVERSITY OF ROCHESTER, priority 2012, dated 2018).

Holding throughout (experiment): AK assay 384-well format, Prestwick library screening
For one assay, the system named is E. coli. It is filed as cell-based, Escherichia coli. To be noted: 50 μM final drug concentration; for fold induction at 50 µM: Escherichia coli, 3 h.
A further assay has as its system E. cloacae. It is filed as cell-based, Enterobacter cloacae. To be noted: 50 μM final drug concentration; for fold induction at 50 µM: Enterobacter cloacae, 3 h.
Assay [1] has as its system A. baumannii strain 98-37-09. It is filed as cell-based, Acinetobacter baumannii. To be noted: 50 μM final drug concentration; for fold induction at 50 µM: Acinetobacter baumannii, 983709, 3 h.
The next assay relates to E. faecium. It is filed as cell-based, Enterococcus faecium. As to conditions: 50 μM final drug concentration; for fold induction at 50 µM: Enterococcus faecium, 3 h.
The subject of a further assay is P. aeruginosa. It is filed as cell-based, Pseudomonas aeruginosa. As to conditions: 50 μM final drug concentration; for fold induction at 50 µM: Pseudomonas aeruginosa, 3 h.
The next assay deals with K. pneumoniae. The class given is cell-based, Klebsiella pneumoniae. As to conditions: 50 μM final drug concentration; for fold induction at 50 µM: Klebsiella pneumoniae, 3 h.
For assay [2], the system named is S. aureus strain USA300-0114. The class given is cell-based, Staphylococcus aureus. As to conditions: 50 μM final drug concentration; for fold induction at 50 µM: Staphylococcus aureus, USA300, 3 h.
[3] abbreviates: cutoff for positive-scoring molecules 3-fold increase, read-out: AK-based Prestwick Library Screening Results, E. coli (fold increase in extracellular AK activity).
[4] abbreviates: cutoff for positive-scoring molecules 3-fold increase, read-out: AK-based Prestwick Library Screening Results, E. cloacae (fold increase in extracellular AK activity).
The mark [5] stands for this setting: cutoff for positive-scoring molecules 3-fold increase, read-out: AK-based Prestwick Library Screening Results, A. baumannii (fold increase in extracellular AK activity).
Setting [6] is: cutoff for positive-scoring molecules 3-fold increase, read-out: AK-based Prestwick Library Screening Results, E. faecium (fold increase in extracellular AK activity).
The mark [7] stands for this setting: cutoff for positive-scoring molecules 3-fold increase, read-out: AK-based Prestwick Library Screening Results, P. aeruginosa (fold increase in extracellular AK activity).
The mark [8] stands for this setting: cutoff for positive-scoring molecules 3-fold increase, read-out: AK-based Prestwick Library Screening Results, K. pneumoniae (fold increase in extracellular AK activity).
Setting [9] is: cutoff for positive-scoring molecules 3-fold increase, read-out: AK-based Prestwick Library Screening Results, S. aureus (fold increase in extracellular AK activity).
[10] abbreviates: planktonic, cutoff for positive-scoring molecules 3-fold increase.

Structures can show the parent of a compound that is named as a salt. Where two headings read alike, the source gives them in different places.

As to `C[N+](C)(C)CCCCCC[N+](C)(C)C.O.O.[Br-].[Br-]` [Hexamethonium dibromide dihydrate], the “AK-based Prestwick Library Screening Results, E. coli (increase in extracellular AK activity)” value with E. coli (384-well format, […]) came to 0.9. Moreover, the “AK-based Prestwick Library Screening Results, E. cloacae (increase in extracellular AK activity)” value in the assay on E. cloacae (384-well format, […]) is 1.2. Further, the “AK-based Prestwick Library Screening Results, A. baumannii (increase in extracellular AK activity)” value in assay [1] (384-well format, […]) amounted to 0.9. Also, in the assay with E. faecium (384-well format, […]), the “AK-based Prestwick Library Screening Results, E. faecium (increase in extracellular AK activity)” value came to 0.9. For the same compound, the “AK-based Prestwick Library Screening Results, P. aeruginosa (increase in extracellular AK activity)” value in the assay on P. aeruginosa (384-well format, […]) came to 0.8. The “AK-based Prestwick Library Screening Results, K. pneumoniae (increase in extracellular AK activity)” value in the assay on K. pneumoniae (384-well format, […]) came out at 0.7. For the same compound, in assay [2] (384-well format, […]), the “AK-based Prestwick Library Screening Results, S. aureus (increase in extracellular AK activity)” value is given as 0.7.

As for `CC[C@H](c1ccc(O)cc1)[C@@H](CC)c1ccc(O)cc1` [Hexestrol], the fold induction at 50 µM worked out at 1.4 in the assay with E. coli (setting [3]); 1.6 in the assay on E. cloacae (setting [4]); 3 in assay [1] (setting [5]); 1.2 in the assay on E. faecium (setting [6]); 1.1 in the assay with P. aeruginosa (setting [7]); 0.7 in the assay on K. pneumoniae (setting [8]). Moreover, in assay [2] (setting [9]), the fold induction at 50 µM came out at 0.7.

As to `CCCCC(CC)CN1CN(CC(CC)CCCC)CC(C)(N)C1` (centres unmarked) [Hexetidine], the fold induction at 50 µM in the assay on E. coli (planktonic, cutoff for positive 3-fold increase, read-out: AK-based Prestwick Library Screening Results, E. coli (fold increase in extracellular AK activity)) was 1.5; in the assay on E. cloacae (planktonic, cutoff for positive 3-fold increase, read-out: AK-based Prestwick Library Screening Results, E. cloacae (fold increase in extracellular AK activity)), 1.6; in assay [1] (planktonic, cutoff for positive 3-fold increase, read-out: AK-based Prestwick Library Screening Results, A. baumannii (fold increase in extracellular AK activity)), 3; with E. faecium (planktonic, cutoff for positive 3-fold increase, read-out: AK-based Prestwick Library Screening Results, E. faecium (fold increase in extracellular AK activity)), 1.1; with P. aeruginosa (planktonic, cutoff for positive 3-fold increase, read-out: AK-based Prestwick Library Screening Results, P. aeruginosa (fold increase in extracellular AK activity)), 1.1; in the assay with K. pneumoniae (planktonic, cutoff for positive 3-fold increase, read-out: AK-based Prestwick Library Screening Results, K. pneumoniae (fold increase in extracellular AK activity)), 1.4. Also, the fold induction at 50 µM in assay [2] (planktonic, cutoff for positive 3-fold increase, read-out: AK-based Prestwick Library Screening Results, S. aureus (fold increase in extracellular AK activity)) came out at 1.2.

As for `CC(CNC1CCCCC1)OC(=O)c1ccccc1` (centres unmarked) [Hexylcaine hydrochloride], the fold induction at 50 µM turned out to be 1.2 in the assay on E. coli (setting [3]); 1.4 in the assay with E. cloacae (setting [4]); 1.3 in assay [1] (setting [5]); 1 in the assay with E. faecium (setting [6]); 1.1 in the assay on P. aeruginosa (setting [7]); 1 in the assay with K. pneumoniae (setting [8]). Further, the fold induction at 50 µM in assay [2] (setting [9]) was 1.3.

As to `CN1CCC2=C[C@H](O)[C@H]3OC(=O)c4cc5c(cc4[C@H]3[C@@H]21)OCO5` [Hippeastrine hydrobromide], in the assay with E. coli (setting [10]), the “AK-based Prestwick Library Screening Results, E. coli (fold increase in extracellular AK activity)” value was 0.9. For the same compound, the “AK-based Prestwick Library Screening Results, E. cloacae (fold increase in extracellular AK activity)” value in the assay on E. cloacae (setting [10]) was found to be 1.4. Also, the “AK-based Prestwick Library Screening Results, A. baumannii (fold increase in extracellular AK activity)” value in assay [1] (setting [10]) was 0.8. For the same compound, the “AK-based Prestwick Library Screening Results, E. faecium (fold increase in extracellular AK activity)” value in the assay on E. faecium (setting [10]) was 0.9. Also, in the assay on P. aeruginosa (setting [10]), the “AK-based Prestwick Library Screening Results, P. aeruginosa (fold increase in extracellular AK activity)” value is reported as 0.9. Further, the “AK-based Prestwick Library Screening Results, K. pneumoniae (fold increase in extracellular AK activity)” value in the assay with K. pneumoniae (setting [10]) came out at 0.6. For the same compound, the “AK-based Prestwick Library Screening Results, S. aureus (fold increase in extracellular AK activity)” value in assay [2] (setting [10]) is reported as 0.7.

On to `CN1CCCN(C(c2ccccc2)c2ccc(Cl)cc2)CC1` (centres unmarked) [Homochlorcyclizine dihydrochloride], for which the fold induction at 50 µM was 1.5 in the assay on E. coli (planktonic E. coli, 384-well, […], read-out: AK-based Prestwick Library Screening Results: E. coli (increase in extracellular AK activity)); 1.8 with E. cloacae (planktonic E. cloacae, 384-well, […], read-out: AK-based Prestwick Library Screening Results: E. cloacae (increase in extracellular AK activity)); 1.2 in assay [1] (planktonic A. baumannii, 384-well, […], read-out: AK-based Prestwick Library Screening Results: A. baumannii (increase in extracellular AK activity)); 1.2 in the assay with E. faecium (planktonic E. faecium, 384-well, […], read-out: AK-based Prestwick Library Screening Results: E. faecium (increase in extracellular AK activity)); 1.2 with P. aeruginosa (planktonic P. aeruginosa, 384-well, […], read-out: AK-based Prestwick Library Screening Results: P. aeruginosa (increase in extracellular AK activity)); 1.1 with K. pneumoniae (planktonic K. pneumoniae, 384-well, […], read-out: AK-based Prestwick Library Screening Results: K. pneumoniae (increase in extracellular AK activity)). Also, in assay [2] (planktonic S. aureus, 384-well, […], read-out: AK-based Prestwick Library Screening Results: S. aureus (increase in extracellular AK activity)), the fold induction at 50 µM was 1.

For the compound `CC1CC(OC(=O)c2ccccc2O)CC(C)(C)C1` (centres unmarked) [Homosalate], the fold induction at 50 µM in the assay on E. coli (planktonic E. coli, positive cutoff 3-fold increase, read-out: AK-based Prestwick library screening result, E. coli (fold increase in extracellular AK activity)) stood at 1.3; in the assay with E. cloacae (planktonic E. cloacae, positive cutoff 3-fold increase, read-out: AK-based Prestwick library screening result, E. cloacae (fold increase in extracellular AK activity)), 1.5; in assay [1] (planktonic A. baumannii, positive cutoff 3-fold increase, read-out: AK-based Prestwick library screening result, A. baumannii (fold increase in extracellular AK activity)), 1.8; with E. faecium (planktonic E. faecium, positive cutoff 3-fold increase, read-out: AK-based Prestwick library screening result, E. faecium (fold increase in extracellular AK activity)) it was 1.1; with P. aeruginosa (planktonic P. aeruginosa, positive cutoff 3-fold increase, read-out: AK-based Prestwick library screening result, P. aeruginosa (fold increase in extracellular AK activity)), 1.1; in the assay on K. pneumoniae (planktonic K. pneumoniae, positive cutoff 3-fold increase, read-out: AK-based Prestwick library screening result, K. pneumoniae (fold increase in extracellular AK activity)), 1.1. In assay [2] (planktonic S. aureus, positive cutoff 3-fold increase, read-out: AK-based Prestwick library screening result, S. aureus (fold increase in extracellular AK activity)), the fold induction at 50 µM was determined as 1.2.

As for `CCN(CC)CCNc1ccc(CO)c2sc3ccccc3c(=O)c12` [Hycanthone], the fold induction at 50 µM came out at 0.9 in the assay on E. coli (planktonic E. coli, cutoff for positive-scoring molecules 3-fold increase, read-out: AK-based Prestwick Library Screening Results, E. coli (increase in extracellular AK activity)); 1.1 in the assay on E. cloacae (planktonic E. cloacae, cutoff for positive-scoring molecules 3-fold increase, read-out: AK-based Prestwick Library Screening Results, E. cloacae (increase in extracellular AK activity)); 0.8 in assay [1] (planktonic A. baumannii, cutoff for positive-scoring molecules 3-fold increase, read-out: AK-based Prestwick Library Screening Results, A. baumannii (increase in extracellular AK activity)); 1.2 with E. faecium (planktonic E. faecium, cutoff for positive-scoring molecules 3-fold increase, read-out: AK-based Prestwick Library Screening Results, E. faecium (increase in extracellular AK activity)); 0.8 with P. aeruginosa (planktonic P. aeruginosa, cutoff for positive-scoring molecules 3-fold increase, read-out: AK-based Prestwick Library Screening Results, P. aeruginosa (increase in extracellular AK activity)); 0.7 with K. pneumoniae (planktonic K. pneumoniae, cutoff for positive-scoring molecules 3-fold increase, read-out: AK-based Prestwick Library Screening Results, K. pneumoniae (increase in extracellular AK activity)). In addition, the fold induction at 50 µM in assay [2] (planktonic S. aureus, cutoff for positive-scoring molecules 3-fold increase, read-out: AK-based Prestwick Library Screening Results, S. aureus (increase in extracellular AK activity)) amounted to 0.8.
